Measurements reported in publication PMC6615261, “Repurposing Azithromycin and Rifampicin Against Gram-Negative Pathogens by Combination With Peptidomimetics” (Frontiers in Cellular and Infection Microbiology, 2019).

Experiments:
[1] = tested on: E. coli ST131; test: Potentiation of additional antibiotics (COMPAN1F plates), MIC; format: cell-based, Escherichia coli; details: for MIC of antibiotic in presence of peptidomimetic 26: + 0.25 μM peptidomimetic 26; for MIC of antibiotic in presence of peptidomimetic 1: + 0.5 μM peptidomimetic 1; for MIC of antibiotic in presence of peptidomimetic 15: + 0.5 μM peptidomimetic 15; for MIC: Escherichia coli, read-out: MIC of antibiotic alone; for MIC / MIC of antibiotic alone: no peptidomimetic
Experimental: (§1) Minimal inhibitory concentrations (MICs) of peptidomimetics, antibiotics and their combinations were determined by broth microdilution according to the Clinical Laboratory Standards Institute performance standards (Clinical and Laboratory Standards Institute, [2013]). […] Since rifampicin and azithromycin mainly are used to treat infections with Gram-positive pathogens only CLSI clinical breakpoints were available for such bacteria. […] Potentiation of additional antibiotics by peptidomimetics was determined by using commercial 96-well plates containing varied concentrations of standard antibiotics (COMPAN1F; Trek Diagnostic Systems Inc.). The peptidomimetics were added immediately prior to inoculation with pathogen, and then MICs were determined as above. The MICs of peptidomimetic/antibiotic combinations were determined according to the method above, and the concentration ratios were selected based upon checkerboard results with 2:1 and 1:4 ratio of peptidomimetic with rifampicin or azithromycin, respectively. Minimal bactericidal concentrations (MBCs) were determined by using growth-curve assay plates. MIC plates were prepared as above, and then the plates were incubated at 37°C with continuous shaking. Growth was recorded at 10 min intervals as optical density (OD) at 600 nm during 24 h. At 24 h, for wells without growth, a sample was diluted 10-fold in sterile saline (0.9% sodium chloride) and plated onto MHA, following CLSI guidelines (Clinical and Laboratory Standards Institute, [1999]).

[2] = tested on: K. pneumoniae ST258; test: as above; format: cell-based, Klebsiella pneumoniae; details: for MIC of antibiotic in presence of peptidomimetic 1: + 1 μM peptidomimetic 1; for MIC of antibiotic in presence of peptidomimetic 15: + 1 μM peptidomimetic 15; for MIC of antibiotic in presence of peptidomimetic 26: + 1 μM peptidomimetic 26; for MIC: Klebsiella pneumoniae, read-out: MIC of antibiotic alone; for MIC / MIC of antibiotic alone: no peptidomimetic
Experimental: as §1

Compound	MIC of antibiotic in presence of peptidomimetic 26 [1]	MIC of antibiotic in presence of peptidomimetic 1 [1] [µg/mL]	MIC of antibiotic in presence of peptidomimetic 15 [1] [µg/mL]	MIC [1] [µg/mL]	MIC of antibiotic in presence of peptidomimetic 1 [2] [µg/mL]	MIC of antibiotic in presence of peptidomimetic 15 [2] [µg/mL]	MIC of antibiotic in presence of peptidomimetic 26 [2] [µg/mL]	MIC [2] [µg/mL]	MIC of antibiotic alone [1] [µg/mL]	MIC of antibiotic alone [2] [µg/mL]
NCC[C@H](O)C(=O)N[C@@H]1C[C@H](N)[C@@H](O[C@H]2O[C@H](CN)[C@@H](O)[C@H](O)[C@H]2O)[C@H](O)[C@H]1O[C@H]1O[C@H](CO)[C@@H](O)[C@H](N)[C@H]1O [Amikacin]	8 µg/mL	>32	8	16	32	32	16	32		
CC1(C)S[C@@H]2[C@H](NC(=O)[C@H](N)c3ccccc3)C(=O)N2[C@H]1C(=O)O [Ampicillin]	>16 µg/mL	>16	>16	> 16	>16	>16	>16	> 16		
Cc1nnc(SCC2=C(C(=O)O)N3C(=O)[C@@H](NC(=O)Cn4cnnn4)[C@H]3SC2)s1 [Cefazolin]	>16 µg/mL	>16	>16	> 16	>16	>16	>16	> 16		
CO/N=C(/C(=O)N[C@@H]1C(=O)N2C(C(=O)O)=C([C@@H]3CCCO3)CS[C@H]12)c1csc(N)n1 [Cefovecin]	>8 µg/mL	>8	>8		>8	>8	>8		>8	>8
CO[C@@]1(NC(=O)Cc2cccs2)C(=O)N2C(C(=O)O)=C(COC(N)=O)CS[C@@H]21 [Cefoxitin]		>16	4	8	>16	>16	>16	> 16		
COCC1=C(C(=O)O)N2C(=O)[C@@H](NC(=O)/C(=N\OC)c3csc(N)n3)[C@H]2SC1 [Cefpodoxime]	>16 µg/mL	>16	>16	> 16	>16	>16	>16	> 16		
CO/N=C(\C(=O)N[C@@H]1C(=O)N2C(C(=O)O)=C(CSC(=O)c3ccco3)CS[C@H]12)c1csc(N)n1 [Ceftiofur]		>4	>4	> 4	>4	>4	>4	> 4		
O=C(N[C@H](CO)[C@H](O)c1ccc([N+](=O)[O-])cc1)C(Cl)Cl [Chloramphenicol]	≤4 µg/mL	≤4	≤4	≤ 4	>16	>16	>16	> 16		
C[C@H]1c2cccc(O)c2C(=O)C2=C(O)[C@]3(O)C(=O)C(C(N)=O)=C(O)[C@@H](N(C)C)[C@@H]3[C@@H](O)[C@@H]21 [Doxycycline]	≤2 µg/mL	≤2	≤2	≤ 2	≤2	≤2	≤2	4		
CCN1CCN(c2cc3c(cc2F)c(=O)c(C(=O)O)cn3C2CC2)CC1 [Enrofloxacin]	>2 µg/mL	>2	>2	> 2	>2	>2	>2	> 2		
CC[C@H]1OC(=O)[C@H](C)[C@@H](O[C@H]2C[C@@](C)(OC)[C@@H](O)[C@H](C)O2)[C@H](C)[C@@H](O[C@@H]2O[C@H](C)C[C@H](N(C)C)[C@H]2O)[C@](C)(O)C[C@@H](C)C(=O)[C@H](C)[C@@H](O)[C@]1(C)O [Erythromycin]				> 4	>4	>4	>4	> 4	>4	
CNC(C)C1CCC(N)C(OC2C(N)CC(N)C(OC3OCC(C)(O)C(NC)C3O)C2O)O1 (centres unmarked) [Gentamicin]	>8 µg/mL	>8	>8	> 8	≤1	2	≤1	2		
C[C@@H](O)[C@H]1C(=O)N2C(C(=O)O)=C(SCCN=CN)C[C@H]12 [Imipenem]	≤1 µg/mL	≤1	≤1	≤ 1	>8	>8	>8	> 8		
CN1CCN(c2c(F)cc3c(=O)c(C(=O)O)cn4c3c2OCN4C)CC1 [Marbofloxacin]	>2 µg/mL	>2	>2	> 2	>2	>2	>2	> 2		
Cc1onc(-c2ccccc2)c1C(=O)N[C@@H]1C(=O)N2[C@@H]1SC(C)(C)[C@@H]2C(=O)O [Oxacillin]	>4 µg/mL	>4	>4	> 4	>4	>4	>4	> 4		
CC1(C)S[C@@H]2[C@H](NC(=O)[C@H](C(=O)O)c3ccsc3)C(=O)N2[C@H]1C(=O)O [Ticarcillin]		>64	>64	> 64	>64	>64	>64	> 64		
Amoxicillin/clavulanic acid [Amoxicillin/clavulanic acid (2:1)]	8/4	8	8		>32	>32	>32		16	>32
Penicillin	>8 µg/mL	>8	>8		>8	>8	>8		>8	>8
Ticarcillin/clavulanic acid [Ticarcillin/clavulanic acid (2:1)]		16	32		>64	>64	>64		64	>64
